Results from patent publication US20200305483A1, “SOURNESS ENHANCERS COMPRISING A CYCLOHEXANECARBOXYLIC ACID” (Firmenich SA, priority 2017, published 2020).

Columns and labels:
Format in all cases: in vivo
[1] = Sensory evaluation of sweet, sour and astringent intensities, model system comprising malic acid
Method: A sucrose (5% by weight) and malic acid (0.05% by weight) solution was prepared and used for evaluating the sourness enhancement effect of a cyclohexanecarboxylic acid having the structure: The evaluation consisted of (i) a test solution of 50 ppm of the cyclohexanecarboxylic acid in the sucrose/malic acid solution; and (ii) a control solution comprising the sucrose/malic acid solution only. 27 trained panelists were asked to evaluate the sweet, sour and astringent intensities for each sample on a linear scale from 0 to 10, where 0 corresponded to “no taste” and 10 corresponded to “too strong to taste”.

[2] = Sensory evaluation of sweet, sour and astringent intensities, model system comprising citric acid
Method: A sucrose (5% by weight), and citric acid (0.05% by weight) solution was prepared and used for evaluating the sourness enhancement effect of a cyclohexanecarboxylic acid having the structure: The evaluation consisted of (i) a test solution of 50 ppm of the cyclohexanecarboxylic acid in the sucrose/citric acid solution; and (ii) a control solution comprising the sucrose/citric acid solution only. 28 trained panelists were asked to evaluate the sweet, sour and astringent intensities for each sample on a linear scale from 0 to 10, where 0 correlated with “no taste” and 10 correlated with “too strong to taste”.

[3] = Paired comparison study (2-AFC) of sourness, model system comprising malic acid; conditions: 50 ppm in 5% sucrose / 0.05% malic acid, pH 3.1 (±0.02), 95% confidence level
Method: A sucrose (5% by weight) and malic acid (0.05% by weight) solution was prepared and used for evaluating the sourness enhancement effect of a cyclohexanecarboxylic acid having the structure: The evaluation consisted of (i) a test solution of 50 ppm of the cyclohexanecarboxylic acid in the sucrose/malic acid solution; and (ii) a control solution comprising the sucrose/malic acid solution only. In a repeat experiment using 41 trained subjects, 41 subjects were asked to select the more sour sample in each pair, in a paired comparison study (2-AFC). The pH of the samples was 3.1 (±0.02). 28 out of 41 subjects found the sample containing compound I at 50 ppm was more sour at a 95% confidence level.

[4] = Paired comparison of sourness, model system comprising tartaric acid; conditions: 50 ppm in 5% sucrose / 0.05% tartaric acid, pH 2.9 (±0.02), 95% confidence level
Method: A sucrose (5% by weight) and tartaric acid (0.05% by weight) solution was prepared and used for evaluating the sourness enhancement effect of a cyclohexanecarboxylic acid having the structure: The evaluation consisted of (i) a test solution of 50 ppm of the cyclohexanecarboxylic acid in the sucrose/tartaric acid solution; and (ii) a control solution comprising the sucrose/tartaric acid solution only. 41 subjects were asked to select out more sour sample in each pair. The pH of the samples was 2.9 (±0.02).

[5] = Paired comparison of sourness, model system comprising citric and lactic acid; conditions: 50 ppm in 5% sucrose / 0.07% citric acid / 0.09% lactic acid, pH 2.9 (±0.02), 95% confidence level
Method: A sucrose (5% by weight), citric acid (0.07% by weight), and lactic acid (0.09% by weight) solution was prepared and used for evaluating the sourness enhancement effect of a cyclohexanecarboxylic acid having the structure: The evaluation consisted of (i) a test solution of 50 ppm of the cyclohexanecarboxylic acid in the sucrose/citric-lactic acid solution; and (ii) a control solution comprising the sucrose/citric-lactic acid solution only. 41 subjects were asked to select out more sour sample in each pair. The pH of the samples was 2.9 (±0.02).

[6] = 50 ppm (by weight) in sucrose/malic acid solution, versus reference sample
[7] = 50 ppm (by weight) in sucrose/citric acid solution, versus reference sample

O=C(/C=C/c1ccc(O)c(O)c1)O[C@@H]1C[C@](O)(C(=O)O)C[C@@H](O)[C@H]1O [compound I]
enhancement of astringency intensity [1, 6]: 24.0%
enhancement of sourness intensity [1, 6]: 22.5%
sourness intensity (tested sample) ([1]; 50 ppm in 5% sucrose / 0.05% malic acid, 27 trained panelists, linear scale 0 to 10, reference sample 4.0, 95% confidence level): 4.9
astringency intensity (tested sample) ([1]; 50 ppm in 5% sucrose / 0.05% malic acid, 27 trained panelists, scale 0 to 10, reference sample 2.5, 99% confidence level): 3.1
sweet intensity, change versus reference sample ([1]; 50 ppm in 5% sucrose / 0.05% malic acid, pH value also unchanged): Without changing
change of astringency intensity [2, 7]: 28.0%
decrease of sweetness intensity [2, 7]: 11.6%
astringency intensity (tested sample) ([2]; 50 ppm in 5% sucrose / 0.05% citric acid, 28 trained panelists, scale 0 to 10, reference sample 2.5): 3.2
sweetness intensity (tested sample) ([2]; 50 ppm in 5% sucrose / 0.05% citric acid, 28 trained panelists, scale 0 to 10, reference sample 4.3, 95% confidence level): 3.8
sourness intensity, change versus reference sample ([2]; 50 ppm in 5% sucrose / 0.05% citric acid, pH value also unchanged): Without changing
subjects who found the sample containing the compound more sour [3]: 28 out of 41 subjects
subjects who found that adding the compound increased sourness [4]: 28 out of 41 subjects
subjects who found that adding the compound increased sourness [5]: 29 out of 41 subjects
